Experimental data taken from patent US6376670B1, “Quinoline-indole antimicrobial agents, uses and compositions related thereto” (Sepracor Inc., priority 1997, dated 2002).
Like-named read-outs stand apart in the source and are kept apart here.

Legend:
Streptococcus pneumoniae = test: Determination of MIC values (BHI broth, 96 well microtiter plate); format: cell-based; settings: for MIC: Streptococcus pneumoniae, read-out: MIC S. pneu
Outline: (§1)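 Broth microdilution in Brain-Heart Infusion with twofold dilution series from 25 µg/mL final and a no-compound control. Overnight incubation at 37° C in a CO2 atmosphere; visual growth endpoint gives the MIC.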

[1] = system: methicillin-resistant Staphylococcus aureus (MRSA); test: as above; format: cell-based; settings: for MIC: Staphylococcus aureus, MRSA, read-out: MIC MRSA
Outline: as §1

[2] = system: vancomycin-resistant Enterococcus spp. (VRE); test: as above; format: cell-based; settings: for MIC: Enterococcus, VRE, read-out: MIC VREF
Outline: as §1

[3] = Acute in vivo toxicity in mice, intraperitoneal injection; settings: in 10% w/v hydroxypropyl-β-cyclodextrin in 0.9% w/v saline, 5 mice
Procedure: Solutions of compounds in 10% w/v hydroxypropyl-β-cyclodextrin in 0.9% w/v saline were prepared. Doses of 40 mg/kg or 120 mg/kg of each compound were administered to mice (5 mice/compound/dose) via intraperitoneal injections. The mice […] for seven days.

S. aureus (ATCC 25923) = test: MIC against S. aureus strain; format: cell-based; settings: Staphylococcus aureus, ATCC25923
Procedure: (§2) Stock solutions of compounds are prepared with a concentration of 10 mg/mL. These solutions are then diluted 1:4 to give a concentration of 2.5 mg/mL. The compounds are then serially diluted 1:2 for 6 iterations. The concentrations made for each compound are 2.5, 1.25, 0.625, 0.3125, 0.156, 0.078, and 0.039 mg/mL. A control sample (no compound) is run along with each compound tested. All dilutions are made in DMSO.
(§3) All wells of a 96 well microtiter plate are filled with 100 μL of BHI (Brain-Heart Infusion) broth. Columns on the plate are labeled 1-12, and rows are labeled A-H. Each column of wells is used to test one series of diluted compounds. Into each well of 100 μL of BHI broth, 1 μL of diluted compound is placed for a 1:100 dilution. This makes the final concentration of each drug series 25, 12.5, 6.25, 3.125, 1.56, 0.78, 0.39, and 0 μg/mL.
(§4) Test Organism: A sterile 15 mL screw cap tube is filled wth 3 mL of BHI broth. Next, 2-3 colonies of test organism are inoculated into the tube. The tube is then incubated at 37° C. in a CO2 (approx. 7%) atmosphere jar. The organisms are allowed to grow to the density of a 0.5 McFarland standard (10^8 cells/mL). The organism is then inoculated into each well of the microtiter plate containing the diluted compounds to be tested for MIC. The inoculum is 1 μL in volume and represents 10^5 to 10^6 cells/mL.
(§5) After inoculation the plates are covered and incubated at 37° C. and approx. 7-10% CO2 atmosphere overnight (about 16 hours). The plates are then observed for growth, the well with the lowest concentration of drug and no observable growth represents the well determining the MIC.

S. aureus (ATCC 29213) = test: MIC against S. aureus strain; format: cell-based; settings: Staphylococcus aureus, ATCC29213
Procedure: as §2, §3, §4, §5

S. aureus (ATCC 33591) = test: MIC against S. aureus strain; format: cell-based; settings: Staphylococcus aureus, ATCC33591
Procedure: as §2, §3, §4, §5

S. aureus (ATCC 33592) = test: MIC against S. aureus strain; format: cell-based; settings: Staphylococcus aureus, ATCC33592
Procedure: as §2, §3, §4, §5

[4] = S. pneu, BHI broth, overnight 37° C.
[5] = VREF, BHI broth, overnight 37° C.
[6] = BHI broth, 37° C., about 16 hours
[7] = 16 h, BHI broth, 37° C., about 16 hours
[8] = BHI broth, 37° C., overnight (about 16 hours)
[9] = 16 h, BHI broth, 37° C., overnight (about 16 hours)

SMILES | MIC (Streptococcus pneumoniae; [4]) | MIC ([1]; BHI broth, overnight 37° C.) | MIC [2, 5] | Mice Surviving on Day 7 ([3]; 40 mg/kg intraperitoneal) | Mice Surviving on Day 7 ([3]; 120 mg/kg intraperitoneal) | MIC (Streptococcus pneumoniae; [6]) | MIC [1, 7] | MIC [2, 7] | further results
NCCNC(=O)c1cc(-c2c[nH]c3ccc(Br)cc23)nc2cc(Cl)ccc12 [Example 316] | < 7 µg/mL | < 7 µg/mL | < 7 µg/mL | 80% | 0% | – | – | – | –
Fc1ccc2c(-c3cc(Cl)c4ccc(Cl)cc4n3)c[nH]c2c1 [Example 461] | – | – | – | 100% | 100% | < 7 µg/mL | < 7 µg/mL | < 7 µg/mL | –
NCC(O)CNC(=O)c1cc(-c2c[nH]c3ccc(Br)cc23)nc2cc(Cl)cc(Cl)c12 (stereo not shown) [Entry 11] | – | – | – | – | – | – | – | – | MIC (S. aureus (ATCC 25923)): < 7 µg/mL; MIC (S. aureus (ATCC 29213)): < 7 µg/mL; MIC (S. aureus (ATCC 33591)): < 7 µg/mL; MIC (S. aureus (ATCC 33592)): < 7 µg/mL
Cc1ccc2[nH]cc(-c3cc(Cl)c4ccc(Cl)cc4n3)c2c1 [Example 474] | – | – | – | 100% | 100% | < 7 µg/mL | < 7 µg/mL | < 25 µg/mL | –
Cn1cc(-c2cc(C(=O)NCCN)c3cc(C#CCN4CCCCC4)c(Cl)cc3n2)c2cc(Br)ccc21 [Example 419] | – | – | – | 40% | 0% | < 7 µg/mL | < 7 µg/mL | < 7 µg/mL | –
Cn1cc(-c2cc(C(=O)NCCN)c3ccc(Cl)cc3n2)c2cc(Br)ccc21 [Example 420] | – | – | – | 100% | 100% | < 7 µg/mL | < 7 µg/mL | < 7 µg/mL | –
COc1ccc2nc(-c3c[nH]c4ccc(Cl)cc34)ccc2c1 [Example 417] | – | – | – | 100% | 100% | – | – | – | –
NCCNC(=O)c1cc(-c2c[nH]c3ccc(Br)cc23)nc2ccc(C#CCN3CCCCC3)cc12 [Example 418] | – | – | – | 100% | 0% | < 7 µg/mL | < 7 µg/mL | < 7 µg/mL | –
COC(=O)c1cc(-c2c[nH]c3ccc(Br)cc23)nc2cc(F)ccc12 [Example 307] | < 7 µg/mL | < 7 µg/mL | < 7 µg/mL | 100% | 100% | – | – | – | –
Fc1ccc2c(-c3ccc4cc(Cl)ccc4n3)c[nH]c2c1 [Example 193] | – | – | – | 100% | 100% | – | – | – | MIC (Streptococcus pneumoniae; [8]): < 7 µg/mL; MIC [1, 9]: < 7 µg/mL; MIC [2, 9]: < 7 µg/mL
Clc1ccc2[nH]cc(-c3cc(Cl)c4ccccc4n3)c2c1 [Example 342] | < 7 µg/mL | < 7 µg/mL | > 25 µg/mL | 100% | 100% | – | – | – | –
OCc1cc(-c2c[nH]c3ccc(Br)cc23)nc2cc(F)ccc12 [Example 447] | – | – | – | 100% | 80% | – | – | – | MIC S. pneu (Streptococcus pneumoniae; [6]): < 7 µg/mL; MIC MRSA [1, 6]: < 7 µg/mL; MIC VREF [2, 6]: <7 µg/mL
Cn1cc(-c2cc(C(=O)NCCN)c3cc(I)ccc3n2)c2cc(Br)ccc21 [Example 359] | < 7 µg/mL | < 7 µg/mL | < 7 µg/mL | 100% | 100% | – | – | – | –
NCCNC(=O)c1cc(-c2c[nH]c3ccc(Br)cc23)nc2cc(Cl)c(C#CCN3CCCCC3)cc12 [Example 380] | < 7 µg/mL | < 7 µg/mL | < 7 µg/mL | 100% | 0% | – | – | – | –
Cc1ccc2[nH]cc(-c3ccc4cccc(C)c4n3)c2c1 [Example 411] | – | – | – | – | – | > 25 µg/mL | > 25 µg/mL | > 25 µg/mL | –
Cn1cc(-c2cc(C(=O)NCc3ccc(CN)cc3)c3ccc(I)cc3n2)c2cc(Br)ccc21 [Example 328] | < 7 µg/mL | > 25 µg/mL | > 25 µg/mL | – | – | – | – | – | –
OCc1[nH]c2ccccc2c1-c1cc(Cl)c2ccccc2n1 [Example 459] | – | – | – | – | – | > 25 µg/mL | > 25 µg/mL | > 25 µg/mL | –
CCOc1cc(-c2c[nH]c3ccc(Br)cc23)nc2ccc(I)cc12 [Example 364] | < 7 µg/mL | < 7 µg/mL | < 25 µg/mL | – | – | – | – | – | –
Cn1cc(-c2cc(C(=O)NCCN)c3cc(C#CCN4CCCCC4)ccc3n2)c2cc(Br)ccc21 [Example 379] | – | – | – | 40% | 0% | – | – | – | –
Cn1cc(-c2cc(C(=O)NCC3CCC(CN)CC3)c3cc(I)ccc3n2)c2cc(Br)ccc21 (stereo not shown) [Example 357] | < 7 µg/mL | < 7 µg/mL | < 7 µg/mL | – | – | – | – | – | –
NCc1ccc(CNC(=O)c2cc(-c3c[nH]c4ccc(Br)cc34)nc3cc4c(cc23)OCO4)cc1 [Example 144] | – | – | – | – | – | – | – | – | MIC (Streptococcus pneumoniae; [8]): < 25 µg/mL; MIC [1, 9]: < 7 µg/mL; MIC [2, 9]: < 25 µg/mL
C[Si](C)(C)CCOC(=O)n1cc(C=O)c2cc(Br)ccc21 [Example 382] | – | – | – | – | – | – | – | – | MIC (Streptococcus pneumoniae): > 25 µg/mL; MIC [1]: > 25 µg/mL; MIC [2]: > 25 µg/mL
COc1ccc2nc(-c3c[nH]c4cc(F)ccc34)ccc2c1 [Example 413] | – | – | – | – | – | > 25 µg/mL | > 25 µg/mL | > 25 µg/mL | –
NCCNC(=O)c1cc(-c2c[nH]c3ccc(Br)cc23)nc2ccc(I)cc12 [Example 107] | – | – | – | 100% | 0% | – | – | – | MIC (Streptococcus pneumoniae; [8]): < 7 µg/mL; MIC [1, 9]: < 7 µg/mL; MIC [2, 9]: < 7 µg/mL
CC(C)N(CC#Cc1ccc2nc(-c3cn(C)c4ccc(Br)cc34)cc(C(=O)NCCN)c2c1)C(C)C [Example 408] | – | – | – | – | – | < 7 µg/mL | < 7 µg/mL | < 7 µg/mL | –
NCC(O)CNC(=O)c1cc(-c2c[nH]c3ccc(Br)cc23)nc2cc(F)ccc12 (stereo not shown) [Example 532] | – | – | – | – | – | < 7 µg/mL | < 7 µg/mL | < 7 µg/mL | –
Brc1ccc2[nH]cc(-c3ccc4cc(I)ccc4n3)c2c1 [Example 363] | < 7 µg/mL | < 7 µg/mL | < 7 µg/mL | – | – | – | – | – | –
O=[N+]([O-])c1ccc2[nH]cc(-c3ccc4cc(Cl)ccc4n3)c2c1 [Example 196] | – | – | – | – | – | – | – | – | MIC (Streptococcus pneumoniae; [8]): < 25 µg/mL; MIC [1, 9]: < 7 µg/mL; MIC [2, 9]: > 25 µg/mL
